This passage reports TGI results from PubChem BioAssay (NCI).

Some test systems named below: A549 NSCLC; EKVX NSCLC; KM12 colon; LOX IMVI melanoma; M14 melanoma; NCI-H226 lung; NCI-H522 lung; RPMI-8226 leukemia; RXF 393 renal; SF-268 CNS; SK-MEL-2 melanoma; SK-MEL-28 melanoma; UO-31 renal.
Common to all, as to assay: NCI tumour cell line growth inhibition, 48 h

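Grown in 96-well plates, cells were treated for 48 hours with each compound at five concentrations. Insufficient inhibition: endpoint recorded as highest concentration tested. TGI: concentration producing complete growth inhibition.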 A value given as a limit tells only on which side of the number the result lay.

In the case of `CC(C)(CN1CCCCC1)C(=O)/C=C/c1ccc(Br)cc1`, the TGI is 7.9 µM in the experiment on A549 NSCLC; 9.13 µM in the experiment on EKVX NSCLC; 11.9 µM in the experiment with KM12 colon; 4.63 µM in the experiment on LOX IMVI melanoma; 4.75 µM with M14 melanoma; 15.7 µM in the experiment with NCI-H226 lung. Further, the TGI in the experiment with NCI-H522 lung is 3.98 µM; in the experiment on RPMI-8226 leukemia, over 27.1 µM; in the experiment with RXF 393 renal, 4.48 µM; in the experiment on SF-268 CNS, 7.08 µM; in the experiment on SK-MEL-2 melanoma it was 9.04 µM; in the experiment with SK-MEL-28 melanoma it was 11.7 µM. Moreover, the TGI in the experiment on UO-31 renal is over 24.7 µM.

For the compound `CN(NC1=NCCO1)c1ccc2ccccc2c1`, the TGI in the experiment on A549 NSCLC, in the experiment with EKVX NSCLC, with KM12 colon, with LOX IMVI melanoma, in the experiment on M14 melanoma and with NCI-H226 lung was over 100 µM each time. The TGI in the experiment with NCI-H522 lung was over 100 µM; with RPMI-8226 leukemia, over 100 µM; in the experiment on RXF 393 renal it was over 100 µM; in the experiment on SF-268 CNS it was over 100 µM; with SK-MEL-2 melanoma, 97.2 µM; in the experiment with SK-MEL-28 melanoma, over 100 µM. This compound also had a TGI in the experiment on UO-31 renal of over 100 µM.

For the compound `Cc1ccc(S(=O)(=O)N(CC(O)COc2ccccc2)c2c(F)cccc2F)cc1` (stereo not drawn), the TGI was 40.1 µM in the experiment with A549 NSCLC; 95.7 µM in the experiment on EKVX NSCLC; 56.3 µM with KM12 colon; 28.5 µM in the experiment on LOX IMVI melanoma; 32 µM with M14 melanoma; 71.1 µM in the experiment on NCI-H226 lung. Further, the TGI with RPMI-8226 leukemia was determined as 34 µM; in the experiment on RXF 393 renal it was 26.1 µM; in the experiment with SF-268 CNS it was 37.4 µM; in the experiment on SK-MEL-2 melanoma, 32.5 µM; with SK-MEL-28 melanoma, 31 µM; in the experiment on UO-31 renal it was 38.7 µM.

On to `O=C(O)CCCc1ccc2c(c1)CC1(C2)Cc2cc3c(cc2C1)CCCC3`, for which the TGI in the experiment on A549 NSCLC is 67 µM; in the experiment with EKVX NSCLC it was over 100 µM; in the experiment with KM12 colon it was 33.6 µM; in the experiment with LOX IMVI melanoma, 32.7 µM; in the experiment on M14 melanoma, 30.9 µM; in the experiment with NCI-H226 lung it was 61.8 µM. The TGI in the experiment with NCI-H522 lung was 47 µM; in the experiment on RPMI-8226 leukemia it was 53.2 µM; in the experiment on RXF 393 renal it was over 100 µM; with SK-MEL-2 melanoma, 35.3 µM; with UO-31 renal, 34.2 µM.

As to `CN1CCOC(C(NC(=O)c2ccccc2)c2ccccc2)C1=O` (stereo not drawn), the TGI in the experiment on A549 NSCLC, in the experiment on EKVX NSCLC, with KM12 colon, with LOX IMVI melanoma, in the experiment on M14 melanoma and with NCI-H226 lung was over 100 µM each time. For the same compound, the TGI in the experiment on NCI-H522 lung, in the experiment on RPMI-8226 leukemia, with RXF 393 renal, with SF-268 CNS, with SK-MEL-2 melanoma and in the experiment on SK-MEL-28 melanoma was over 100 µM in each case. Further, the TGI in the experiment on UO-31 renal was over 100 µM.

On to `CCN(CC)CCNc1ccc([N+](=O)[O-])c2nc3ccc(OC)cc3c(NCCN(CC)CC)c12`, for which the TGI in the experiment with A549 NSCLC is 3.4 µM; with EKVX NSCLC it was 5.02 µM; in the experiment on KM12 colon, 3.6 µM; in the experiment with LOX IMVI melanoma, 2.43 µM; with M14 melanoma, over 5.3 µM; in the experiment with NCI-H226 lung it was 3.8 µM. The TGI in the experiment with NCI-H522 lung is 2.51 µM; with RPMI-8226 leukemia it was over 4.4 µM; with RXF 393 renal, 2.59 µM; in the experiment on SF-268 CNS, over 10 µM; in the experiment on SK-MEL-2 melanoma it was 4.87 µM; in the experiment on SK-MEL-28 melanoma, over 8.37 µM. For the same compound, in the experiment on UO-31 renal, the TGI is 3.71 µM.

Regarding `C1CCC(N=C2N(C3CCCCC3)C(=NC3CCCCC3)N2C2CCCCC2)CC1`, the TGI in the experiment with A549 NSCLC, in the experiment with EKVX NSCLC, in the experiment with KM12 colon, in the experiment on LOX IMVI melanoma, in the experiment on M14 melanoma and with NCI-H522 lung was over 100 µM throughout. In addition, the TGI with RPMI-8226 leukemia, with RXF 393 renal, in the experiment on SF-268 CNS, in the experiment with SK-MEL-2 melanoma, in the experiment on SK-MEL-28 melanoma and in the experiment with UO-31 renal was over 100 µM each time.

With `Cn1c2ccccc2c(=O)c2c(O)cc3c(c21)C1OCC(C)(O)C1O3` (stereo not drawn), the TGI was over 100 µM with A549 NSCLC; over 100 µM in the experiment with EKVX NSCLC; over 100 µM with M14 melanoma; 63.5 µM in the experiment with NCI-H226 lung; over 100 µM in the experiment with RPMI-8226 leukemia; 69 µM with RXF 393 renal. The TGI in the experiment on SF-268 CNS is 86.6 µM; in the experiment on SK-MEL-2 melanoma it was over 100 µM; with SK-MEL-28 melanoma it was over 100 µM; in the experiment with UO-31 renal, 36.6 µM.

As to `Cc1cc(C)c(-c2no/c(=N\S(=O)(=O)c3ccc(Cl)cc3)o2)c(C)c1`, the TGI is over 100 µM with A549 NSCLC; over 100 µM in the experiment with EKVX NSCLC; over 100 µM with KM12 colon; over 100 µM in the experiment on M14 melanoma; over 100 µM in the experiment on NCI-H226 lung; 71.2 µM with NCI-H522 lung. Moreover, the TGI with RPMI-8226 leukemia, in the experiment with RXF 393 renal, with SF-268 CNS, in the experiment on SK-MEL-2 melanoma, in the experiment on SK-MEL-28 melanoma and in the experiment on UO-31 renal was over 100 µM in each case.

With `CCOC(=O)C1S(=O)(=O)OCCOS1(=O)=O`, the TGI in the experiment with A549 NSCLC, in the experiment on EKVX NSCLC, in the experiment with KM12 colon, in the experiment with LOX IMVI melanoma, with M14 melanoma and in the experiment with NCI-H522 lung was over 100 µM in each case. Further, the TGI with RPMI-8226 leukemia, in the experiment with SF-268 CNS, in the experiment on SK-MEL-2 melanoma, in the experiment on SK-MEL-28 melanoma and in the experiment on UO-31 renal was over 100 µM in each case.

As to `Cc1nc2c(sc3nc4c(cc32)CCC4)c(=O)o1`, the TGI with A549 NSCLC, in the experiment with EKVX NSCLC, in the experiment on KM12 colon, in the experiment with LOX IMVI melanoma, with M14 melanoma and in the experiment on NCI-H226 lung was over 100 µM throughout. Besides, the TGI was 77.9 µM with NCI-H522 lung; over 88.3 µM with RPMI-8226 leukemia; over 100 µM with RXF 393 renal; over 100 µM in the experiment with SF-268 CNS; over 100 µM in the experiment with SK-MEL-2 melanoma; over 100 µM in the experiment on SK-MEL-28 melanoma. In the experiment on UO-31 renal, this compound displayed a TGI of over 91.1 µM.
